# Measurements from ChEMBL document CHEMBL5352410, “Discovery of novel selenium-containing azole derivatives as antifungal agents by exploiting the hydrophobic cleft of CYP51” (Eur J Med Chem, 2022).
# Experiments:
# [1] = system: Candida albicans; test: Antifungal activity against Candida albicans sc5314 by CLSI based broth microdilution method; assay type: functional
# [2] = system: Candida albicans; test: Antifungal activity against Candida albicans by CLSI based broth microdilution method; assay type: functional
# [3] = system: Nakaseomyces glabratus; test: Antifungal activity against Candida glabrata by CLSI based broth microdilution method; assay type: functional
# [4] = system: Candida parapsilosis; test: Antifungal activity against Candida parapsilosis by CLSI based broth microdilution method; assay type: functional; conditions: Lodderomyces parapsilosis
# [5] = system: Pichia kudriavzevii; test: Antifungal activity against Pichia kudriavzevii by CLSI based broth microdilution method; assay type: functional
# [6] = system: [Candida] zeylanoides; test: Antifungal activity against Candida zeylanoides by CLSI based broth microdilution method; assay type: functional; conditions: Dujonia zeylanoides
# [7] = system: Cryptococcus neoformans; test: Antifungal activity against Cryptococcus neoformans by CLSI based broth microdilution method; assay type: functional
# [8] = system: Aspergillus fumigatus; test: Antifungal activity against Aspergillus fumigatus by CLSI based broth microdilution method; assay type: functional
# [9] = system: Candida albicans; test: Antifungal activity against FCZ-resistant Candida albicans CaR by CLSI based broth microdilution method; assay type: functional
# [10] = system: Candida albicans; test: Antifungal activity against FCZ-resistant Candida albicans 17# by CLSI based broth microdilution method; assay type: functional
# [11] = system: Candida albicans; test: Antifungal activity against FCZ-resistant Candida albicans 632 by CLSI based broth microdilution method; assay type: functional
# [12] = system: Candida albicans; test: Antifungal activity against FCZ-resistant Candida albicans 901 by CLSI based broth microdilution method; assay type: functional
# [13] = system: Candida albicans; test: Antifungal activity against FCZ-resistant Candida albicans 904 by CLSI based broth microdilution method; assay type: functional
# [14] = biological target: T1, Lanosterol 14-alpha demethylase (Candida albicans (strain SC5314 / ATCC MYA-2876) (Yeast), UniProt P10613); test: Inhibition of CYP51 of Candida albicans ATCC SC5314 assessed as decrease in ergosterol level by measuring residual activity at 1 ug/ml incubated for 16 hrs by GC-MS analysis (reference value: 98.3 %); conditions: at 1 µg/mL
# [15] = biological target: T1, Lanosterol 14-alpha demethylase; test: Inhibition of CYP51 of Candida albicans ATCC SC5314 assessed as decrease in ergosterol level by measuring residual activity at 2 ug/ml incubated for 16 hrs by GC-MS analysis (reference value: 98.3 %); conditions: at 2 µg/mL
# [16] = biological target: T1, Lanosterol 14-alpha demethylase; test: Inhibition of CYP51 of Candida albicans ATCC SC5314 assessed as decrease in ergosterol level by measuring residual activity at 4 ug/ml incubated for 16 hrs by GC-MS analysis (reference value: 98.3 %); conditions: at 4 µg/mL
# [17] = biological target: T1, Lanosterol 14-alpha demethylase; test: Inhibition of CYP51 of Candida albicans ATCC SC5314 assessed as decrease in ergosterol level by measuring residual activity at 8 ug/ml incubated for 16 hrs by GC-MS analysis (reference value: 98.3 %); conditions: at 8 µg/mL
# [18] = biological target: T1, Lanosterol 14-alpha demethylase; test: Inhibition of CYP51 of Candida albicans ATCC SC5314 assessed as increase in obtusifoliol level at 1 ug/ml incubated for 16 hrs by GC-MS analysis (reference value: 0 %); parameters: scale not given: the % may be the effect or the level left; conditions: at 1 µg/mL
# [19] = biological target: T1, Lanosterol 14-alpha demethylase; test: Inhibition of CYP51 of Candida albicans ATCC SC5314 assessed as increase in obtusifoliol level at 2 ug/ml incubated for 16 hrs by GC-MS analysis (reference value: 0 %); parameters: scale not given: the % may be the effect or the level left; conditions: at 2 µg/mL
# [20] = biological target: T1, Lanosterol 14-alpha demethylase; test: Inhibition of CYP51 of Candida albicans ATCC SC5314 assessed as increase in obtusifoliol level at 4 ug/ml incubated for 16 hrs by GC-MS analysis (reference value: 0 %); parameters: scale not given: the % may be the effect or the level left; conditions: at 4 µg/mL
# [21] = biological target: T1, Lanosterol 14-alpha demethylase; test: Inhibition of CYP51 of Candida albicans ATCC SC5314 assessed as increase in obtusifoliol level at 8 ug/ml incubated for 16 hrs by GC-MS analysis (reference value: 0 %); parameters: scale not given: the % may be the effect or the level left; conditions: at 8 µg/mL
# [22] = biological target: T1, Lanosterol 14-alpha demethylase; test: Inhibition of CYP51 of Candida albicans ATCC SC5314 assessed as increase in lanosterol level at 1 ug/ml incubated for 16 hrs by GC-MS analysis (reference value: 1.7 %); parameters: scale not given: the % may be the effect or the level left; conditions: at 1 µg/mL
# [23] = biological target: T1, Lanosterol 14-alpha demethylase; test: Inhibition of CYP51 of Candida albicans ATCC SC5314 assessed as increase in lanosterol level at 2 ug/ml incubated for 16 hrs by GC-MS analysis (reference value: 1.7 %); parameters: scale not given: the % may be the effect or the level left; conditions: at 2 µg/mL
# [24] = biological target: T1, Lanosterol 14-alpha demethylase; test: Inhibition of CYP51 of Candida albicans ATCC SC5314 assessed as increase in lanosterol level at 4 ug/ml incubated for 16 hrs by GC-MS analysis (reference value: 1.7 %); parameters: scale not given: the % may be the effect or the level left; conditions: at 4 µg/mL
# [25] = biological target: T1, Lanosterol 14-alpha demethylase; test: Inhibition of CYP51 of Candida albicans ATCC SC5314 assessed as increase in lanosterol level at 8 ug/ml incubated for 16 hrs by GC-MS analysis (reference value: 1.7 %); parameters: scale not given: the % may be the effect or the level left; conditions: at 8 µg/mL
# [26] = biological target: T1, Lanosterol 14-alpha demethylase; test: Inhibition of CYP51 of Candida albicans ATCC SC5314 assessed as increase in eburicol level at 1 ug/ml incubated for 16 hrs by GC-MS analysis (reference value: 0 %); parameters: scale not given: the % may be the effect or the level left; conditions: at 1 µg/mL
# [27] = biological target: T1, Lanosterol 14-alpha demethylase; test: Inhibition of CYP51 of Candida albicans ATCC SC5314 assessed as increase in eburicol level at 2 ug/ml incubated for 16 hrs by GC-MS analysis (reference value: 0 %); parameters: scale not given: the % may be the effect or the level left; conditions: at 2 µg/mL
# [28] = biological target: T1, Lanosterol 14-alpha demethylase; test: Inhibition of CYP51 of Candida albicans ATCC SC5314 assessed as increase in eburicol level at 4 ug/ml incubated for 16 hrs by GC-MS analysis (reference value: 0 %); parameters: scale not given: the % may be the effect or the level left; conditions: at 4 µg/mL
# [29] = biological target: T1, Lanosterol 14-alpha demethylase; test: Inhibition of CYP51 of Candida albicans ATCC SC5314 assessed as increase in eburicol level at 8 ug/ml incubated for 16 hrs by GC-MS analysis (reference value: 0 %); parameters: scale not given: the % may be the effect or the level left; conditions: at 8 µg/mL
# [30] = system: Candida albicans; test: Antibiofilm activity against Candida albicans SC5314 assessed as sessile minimum inhibitory concentration measured after 1.5 hrs by XTT assay; assay type: functional
# [31] = system: Candida albicans; test: Antibiofilm activity against Candida albicans SC5314 assessed as sessile minimum inhibitory concentration measured after 3 hrs by XTT assay; assay type: functional
# [32] = system: Candida albicans; test: Antibiofilm activity against Candida albicans SC5314 assessed as sessile minimum inhibitory concentration measured after 6 hrs by XTT assay; assay type: functional
# [33] = system: Candida albicans; test: Antibiofilm activity against Candida albicans SC5314 assessed as sessile minimum inhibitory concentration measured after 24 hrs by XTT assay; assay type: functional
# [34] = system: Candida albicans; test: Antibiofilm activity against Candida albicans CPCC400616 assessed as sessile minimum inhibitory concentration measured after 1.5 hrs by XTT assay; assay type: functional
# [35] = system: Candida albicans; test: Antibiofilm activity against Candida albicans CPCC400616 assessed as sessile minimum inhibitory concentration measured after 3 hrs by XTT assay; assay type: functional
# [36] = system: Candida albicans; test: Antibiofilm activity against Candida albicans CPCC400616 assessed as sessile minimum inhibitory concentration measured after 6 hrs by XTT assay; assay type: functional
# [37] = system: Candida albicans; test: Antibiofilm activity against Candida albicans CPCC400616 assessed as sessile minimum inhibitory concentration measured after 24 hrs by XTT assay; assay type: functional
# [38] = system: Candida albicans; test: Fungicidal activity against Candida albicans; assay type: functional
# [39] = system: Candida albicans; test: Fungicidal activity against Candida albicans sc5314; assay type: functional
# [40] = system: Candida albicans; test: Fungicidal activity against FCZ-resistant Candida albicans CaR; assay type: functional
# [41] = system: Candida albicans; test: Fungicidal activity against FCZ-resistant Candida albicans 17#; assay type: functional
# [42] = system: Candida albicans; test: Fungicidal activity against FCZ-resistant Candida albicans 632; assay type: functional
# [43] = system: Candida albicans; test: Fungicidal activity against FCZ-resistant Candida albicans 901; assay type: functional
# [44] = system: Candida albicans; test: Fungicidal activity against FCZ-resistant Candida albicans 904; assay type: functional
# [45] = Cytotoxicity against human HL-60 cells by MTT assay; assay type: toxicity, cell-based
# [46] = Cytotoxicity against human MDA-MB-231 cells by MTT assay; assay type: toxicity, cell-based
# [47] = Cytotoxicity against human PC-3 cells by MTT assay; assay type: toxicity, cell-based
# T1 sequence (P10613 whole entry): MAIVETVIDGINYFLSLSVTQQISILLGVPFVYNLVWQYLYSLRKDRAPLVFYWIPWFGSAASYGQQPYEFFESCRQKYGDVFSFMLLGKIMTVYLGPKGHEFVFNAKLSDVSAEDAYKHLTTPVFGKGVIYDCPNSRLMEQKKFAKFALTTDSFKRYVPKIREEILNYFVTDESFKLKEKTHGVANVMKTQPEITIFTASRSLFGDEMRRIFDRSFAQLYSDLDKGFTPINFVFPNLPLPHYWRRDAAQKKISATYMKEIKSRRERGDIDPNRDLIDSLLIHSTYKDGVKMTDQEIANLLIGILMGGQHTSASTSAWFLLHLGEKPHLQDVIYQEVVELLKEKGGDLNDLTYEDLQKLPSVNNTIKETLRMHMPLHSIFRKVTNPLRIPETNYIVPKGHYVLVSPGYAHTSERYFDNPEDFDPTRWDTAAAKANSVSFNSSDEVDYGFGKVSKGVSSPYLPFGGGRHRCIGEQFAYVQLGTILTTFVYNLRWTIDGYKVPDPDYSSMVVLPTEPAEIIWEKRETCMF
smiles,measurement,setting,value
OC(Cn1cncn1)(Cn1cncn1)c1ccc(F)cc1F [FLUCONAZOLE],MIC,[1],1 µg/mL
same,MIC,[2],4 µg/mL
same,MIC,[3],32 µg/mL
same,MIC,[4],4 µg/mL
same,MIC,[5],32 µg/mL
same,MIC,[6],2 µg/mL
same,MIC,[7],4 µg/mL
same,MIC,[8],> 64 µg/mL
same,MIC,[9],> 64 µg/mL
same,MIC,[10],> 64 µg/mL
same,MIC,[11],> 64 µg/mL
same,MIC,[12],> 64 µg/mL
same,MIC,[13],> 64 µg/mL
same,Activity,[14],3.9%
same,Activity,[15],2.5%
same,Activity,[16],2.5%
same,Activity,[17],1.1%
same,Activity,[18],13.9%
same,Activity,[19],13.1%
same,Activity,[20],12.5%
same,Activity,[21],14.8%
same,Activity,[22],14.9%
same,Activity,[23],15.7%
same,Activity,[24],15.4%
same,Activity,[25],14.3%
same,Activity,[26],67.3%
same,Activity,[27],68.7%
same,Activity,[28],69.6%
same,Activity,[29],69.9%
same,MIC50,[30],> 1020 µg/mL
same,MIC80,[30],> 1020 µg/mL
same,MIC50,[31],> 1020 µg/mL
same,MIC80,[31],> 1020 µg/mL
same,MIC50,[32],> 1020 µg/mL
same,MIC80,[32],> 1020 µg/mL
same,MIC50,[33],> 1020 µg/mL
same,MIC80,[33],> 1020 µg/mL
same,MIC50,[34],> 1020 µg/mL
same,MIC80,[34],> 1020 µg/mL
same,MIC50,[35],> 1020 µg/mL
same,MIC80,[35],> 1020 µg/mL
same,MIC50,[36],> 1020 µg/mL
same,MIC80,[36],> 1020 µg/mL
same,MIC50,[37],> 1020 µg/mL
same,MIC80,[37],> 1020 µg/mL
Clc1ccc(C(Cn2ccnc2)[Se]C(Cn2ccnc2)c2ccc(Cl)cc2)cc1 (stereo not given),MIC,[1],1 µg/mL
same,MIC,[2],2 µg/mL
same,MIC,[3],64 µg/mL
same,MIC,[4],2 µg/mL
same,MIC,[5],16 µg/mL
same,MIC,[6],8 µg/mL
same,MIC,[7],> 64 µg/mL
same,MIC,[8],> 64 µg/mL
same,MIC,[9],4 µg/mL
same,MIC,[10],1 µg/mL
same,MIC,[11],2 µg/mL
same,MIC,[12],1 µg/mL
same,MIC,[13],1 µg/mL
same,MFC,[38],32 µg/mL
same,MFC,[39],2 µg/mL
same,MFC,[40],> 64 µg/mL
same,MFC,[41],> 64 µg/mL
same,MFC,[42],4 µg/mL
same,MFC,[43],2 µg/mL
same,MFC,[44],1 µg/mL
same,Activity,[14],64.7%
same,Activity,[15],10.4%
same,Activity,[16],4.4%
same,Activity,[17],3.7%
same,Activity,[18],1%
same,Activity,[19],18%
same,Activity,[20],9.5%
same,Activity,[21],23.8%
same,Activity,[22],5.1%
same,Activity,[23],15.4%
same,Activity,[24],12.4%
same,Activity,[25],17%
same,Activity,[26],29.3%
same,Activity,[27],56.2%
same,Activity,[28],73.8%
same,Activity,[29],55.5%
same,MIC50,[30],0.5 µg/mL
same,MIC80,[30],2 µg/mL
same,MIC50,[31],0.5 µg/mL
same,MIC80,[31],2 µg/mL
same,MIC50,[32],0.5 µg/mL
same,MIC80,[32],4 µg/mL
same,MIC50,[33],0.5 µg/mL
same,MIC80,[33],2 µg/mL
same,MIC50,[34],0.5 µg/mL
same,MIC80,[34],2 µg/mL
same,MIC50,[35],0.5 µg/mL
same,MIC80,[35],2 µg/mL
same,MIC50,[36],1 µg/mL
same,MIC80,[36],2 µg/mL
same,MIC50,[37],2 µg/mL
same,MIC80,[37],4 µg/mL
same,IC50,[45],5.18 µM
same,IC50,[46],3.25 µM
same,IC50,[47],0.98 µM
